Source: US20080221134A1, “8-ALKYNYLXANTHINES AND DERIVATIVES” (priority 2006, published 2008)
Entries after “also recorded” stand apart in the source; their conditions may differ.

Tested on: CGS-21680 induced catalepsy
Assay: Acute CGS-21680 induced catalepsy test
Format: in vivo, rat
Details: for effect on catalepsy time in acute CGS-21680 induced catalepsy model: i.p. in DMSO, 0.1-10 mg/kg
Description: Animals were administered with Reserpine or CGS-21680 according to methods known to the skilled person in the art. These models and procedures are e.g. described by Ferré S. et al., Neurosci. Let., 1991, 130, 162; Ferré S. et al., Neuroscience, 1992, 51, 501; Kafka S. H. et al., Eur. J. Pharmacol., 1996, 295, 147; Rimondini R. et al., Neuropsychopharmacology, 1997, 17, 82 and are herein incorporated by reference. In the acute CGS-21680 induced catalepsy model (CGS model) the test compounds (TC, compounds according to the present invention) and CGS-21680 (i.p. 2 mg/kg) were administered 60 minutes before the start of the catalepsy bar measurement and behavioural testing described below (see also FIG. 1). In the acute Reserpine induced catalepsy model (RES model Resperine (subcutaneously, 3 mg/kg) was injected 24 h prior to the test compound application. Catalepsy bar measurement took place 60 minutes after test compound application (see FIG. 1). Test compounds were administered i.p. in DMSO in following doses (mg/kg): 0.1, 0.3, 1, 3, 10.
Dimethylsulfoxide (DMSO) was used as vehicle for the test compounds and Reserpine. Reserpine was dissolved in DMSO in a concentration of 3 mg/ml. A 10% (w/v) Cyclodextrin solution was used as vehicle for CGS-21680. CGS 21680 was dissolved in 10% (w/v) Cyclodextrine in a concentration of 2 mg/ml.
Caffeine was used as a reference compound in the CGS-21680 induced catalepsy model. A caffeine solution was prepared with water for injection purposes to a concentration of 30 mg/ml. The solution was administered intraperitoneally in a volume of 1 ml/kg (30 mg/kg) 30 minutes before the beginning of testing and after CGS-21680 pre-treatment (1 hour prior to testing).
The catalepsy bar after CGS-21680 administration was measured (CAT) as follows: The rat was placed with its forepaws on a log of wood. […] If the animal descended faster than 1 second, the trial was regarded as invalid. If more than 20 trials were rated as invalid, the values of all uncompleted trials were noted as 0. The animal was tested until five trials had been completed and the time for each trial was noted. Only the values of the last three trials were used for the analysis. The following parameters were calculated: maximum time to descend (s) and median time to descend (s).
Behavioural observation (BO) included the measurement of the body tone, inclined plane and grip strength.
The rat is taken in the hand of the observer and the animal's body tone is rated as normal, soft or hard. The rating is performed immediately after taking the animal from its home cage before performance of catalepsy testing. The following parameters were calculated: mean occurrence of hard body tone and mean occurrence of soft body tone.
The rat is horizontally placed to an inclined plane for a maximum time of 30 seconds. Time to reach bottom or top is measured. […] The test is performed after catalepsy testing. Time to leave the inclined plane(s) was measured.
The rat is put on a grip and the observer pulls the animal back on his tail. The strength (fore paws and hind paws) by which it holds on the grid is scored as grasping and pulling, grasping without pulling or no grasping. The test is performed after the inclined plane test. The following parameters were calculated: mean score of fore paw grip strength and mean score of hind paw grip strength.
All statistical tests were performed two tailed with a value of p<0.05 considered as significant.
To assess the effects of CGS-21680 and Reserpine pre-treatment compared to vehicle treated controls statistical comparisons between the test groups were performed using a U test statistic.
To assess the effects of test compounds on CGS-21680 and Reserpine pre-treated animals correlation analyses including animals from test groups and the respective test compound-treated groups were performed. […]

[1] = vs only CGS-21680-treated animals

| Structure (SMILES) | effect on catalepsy time in acute CGS-21680 induced catalepsy model | grip strength after CGS-21680 treatment [1] | hard body tone after CGS-21680 treatment [1] | maximum catalepsy values after CGS-21680 treatment [1] | median catalepsy values after CGS-21680 treatment [1] | soft body tone after CGS-21680 treatment [1] | any other parameter measured after CGS-21680 treatment (parameters other than body tone) |
| --- | --- | --- | --- | --- | --- | --- | --- |
| C#CCn1c(=O)c2c(nc(C#Cc3ccc(OC)c(OC)c3)n2C)n(CC)c1=O [test compound 1, 3-ethyl-8-(3,4-dimethoxyphenylethynyl)-7-methyl-1-prop-2-ynyl-3,7-dihydropurine-2,6-dione] | significantly reduced catalepsy time; also recorded: significant reduction of catalepsy time; also recorded: significant effects | higher amount of grip strength | significantly increased | decreased | decreased | decreased |  |
| C#CCn1c(=O)c2c(nc(C#Cc3ccc(OC)c(OC)c3)n2C)n(CCCO)c1=O [test compound 2, 3-(3-hydroxypropyl)-8-(3,4-dimethoxyphenylethynyl)-7-methyl-1-prop-2-ynyl-3,7-dihydropurine-2,6-dione] | reduced catalepsy time; also recorded: reduction of catalepsy time; also recorded: significant effects |  | significantly increased |  |  | decreased | no significant effects |
